Experimental data from US9597382B2, “KNTC2 peptides and vaccines containing the same” (ONCOTHERAPY SCIENCE, INC., priority 2013, dated 2017).

Experiments:
[1] = tested on: peptide-pulsed C1R-A02 cells; test: IFN-gamma ELISPOT assay on CTLs induced with KNTC2 peptides; assay type: cell-based, human; conditions: CTLs induced with peptide-pulsed DCs from HLA-A*0201 positive donor; peptide-pulsed C1R-A02 cells vs control wells
Source text: Monocyte-derived dendritic cells (DCs) were used as antigen-presenting cells to induce cytotoxic T lymphocyte (CTL) responses against peptides presented on human leukocyte antigen (HLA). DCs were generated in vitro as described elsewhere (Nakahara S et al., Cancer Res 2003 Jul. 15, 63(14): 4112-8). Specifically, peripheral blood mononuclear cells isolated from a normal volunteer (HLA-A*0201 positive) by Ficoll-Paque plus (Pharmacia) solution were separated by adherence to a plastic tissue culture dish (Becton Dickinson) so as to enrich them as the monocyte fraction. The monocyte-enriched population was cultured in the presence of 1000 IU/ml of granulocyte-macrophage colony-stimulating factor (R&D System) and 1000 IU/ml of interleukin (IL)-4 (R&D System) in AIM-V Medium (Invitrogen) containing 2% heat-inactivated autologous serum (AS). After 7 days of culture, the cytokine-induced DCs were pulsed with 20 micro g/ml of each of the synthesized peptides in the presence of 3 micro g/ml of beta 2-microglobulin for 3 hr at 37 degrees C. in AIM-V Medium. The generated cells appeared to express DC-associated molecules, such as CD80, CD83, CD86 and HLA class II, on their cell surfaces (data not shown). These peptide-pulsed DCs were then inactivated by X ray-irradiated (20 Gy) and mixed at a 1:20 ratio with autologous CD8+ T cells, obtained by positive selection with CD8 Positive Isolation Kit (Dynal). These cultures were set up in 48-well plates (Corning); each well contained 1.5×10^4 peptide-pulsed DCs, 3×10^5 CD8+ T cells and 10 ng/ml of IL-7 (R&D System) in 0.5 ml of AIM-V/2% AS medium. Three days later, these cultures were supplemented with IL-2 (CHIRON) to a final concentration of 20 IU/ml. On day 7 and 14, the T cells were further stimulated with the autologous peptide-pulsed DCs. The DCs were prepared each time by the same way described above. CTL was tested against peptide-pulsed C1R-A02 cells after the 3rd round of peptide stimulation on day 21 (Tanaka H et al., Br J Cancer 2001 Jan. 5, 84(1): 94-9; Umano Y et al., Br J Cancer 2001 Apr. 20, 84(8): 1052-7; Uchida N et al., Clin Cancer Res 2004 Dec. 15, 10(24): 8577-86; Suda T et al., Cancer Sci 2006 May, 97(5): 411-9; Watanabe T et al., Cancer Sci 2005 August, 96(8): 498-506).
(§1) To examine specific CTL activity, IFN-gamma ELISPOT assay and IFN-gamma ELISA were performed. Peptide-pulsed C1R-A02 cells (1×10^4/well) were prepared as stimulator cells. Cultured cells in 48-well plate, CTL lines and CTL clones were used as responder cells. IFN-gamma ELISPOT assay and IFN-gamma ELISA were performed under the manufacturer's procedure.

[2] = tested on: C1R-A02 cells pulsed with corresponding peptide; test: IFN-gamma ELISA of CTL clones established by limiting dilution; assay type: cell-based, human
Description: The dilutions were made to have 0.3, 1, and 3 CTLs/well in 96 round-bottomed micro titer plate (Nalge Nunc International). CTLs were cultured with 1×10^4 cells/well of 2 kinds of human B-lymphoblastoid cell lines, 30 ng/ml of anti-CD3 antibody, and 125 IU/ml of IL-2 in a total of 150 micro 1/well of AIM-V Medium containing 5% AS. 50 micro 1/well of IL-2 were added to the medium 10 days later to reach a final concentration of 125 IU/ml IL-2. CTL activity was tested on the 14th day, and CTL clones were expanded using the same method as described above (Uchida N et al., Clin Cancer Res 2004 Dec. 15, 10(24): 8577-86; Suda T et al., Cancer Sci 2006 May, 97(5): 411-9; Watanabe T et al., Cancer Sci 2005 August, 96(8): 498-506).
as §1

[3] = tested on: peptide-pulsed C1R-A02 cells; test: IFN-gamma ELISA of CTL lines; assay type: cell-based, human; conditions: target cells pulsed with corresponding peptide vs without peptide pulse
Description: CTLs were expanded in culture using the method similar to the one described by Riddell et al. (Walter E A et al., N Engl J Med 1995 Oct. 19, 333(16): 1038-44; Riddell S R et al., Nat Med 1996 Feb. 2(2): 216-23). A total of 5×10^4 CTLs were suspended in 25 ml of AIM-V/5% AS medium with 2 kinds of human B-lymphoblastoid cell lines, inactivated by Mitomycin C, in the presence of 40 ng/ml of anti-CD3 monoclonal antibody (Pharmingen). One day after initiating the cultures, 120 IU/ml of IL-2 were added to the cultures. The cultures were fed with fresh AIM-V/5% AS medium containing 30 IU/ml of IL-2 on days 5, 8 and 11 (Tanaka H et al., Br J Cancer 2001 Jan. 5, 84(1): 94-9; Umano Y et al., Br J Cancer 2001 Apr. 20, 84(8): 1052-7; Uchida N et al., Clin Cancer Res 2004 Dec. 15, 10(24): 8577-86; Suda T et al., Cancer Sci 2006 May, 97(5): 411-9; Watanabe T et al., Cancer Sci 2005 August, 96(8): 498-506).
as §1

[4] = tested on: COS7 cells transfected with KNTC2 and HLA-A*0201; test: Specific CTL activity against target cells expressing KNTC2 and HLA-A*0201; assay type: cell-based, African green monkey
Source text: The cDNA encoding an open reading frame of target genes or HLA-A*0201 was amplified by PCR. The PCR-amplified product was cloned into expression vector. The plasmids were transfected into COS7, which is the target genes and HLA-A*0201-null cell line, using lipofectamine 2000 (Invitrogen) according to the manufacturer's procedure. After 2 days from transfection, the transfected cells were harvested with versene (Invitrogen) and used as the stimulator cells (5×10^4 cells/well) for CTL activity assay.
The established CTL line raised against KNTC2-A02-9-184 (SEQ ID NO: 7) peptide was examined for the ability to recognize target cells that express KNTC2 and HLA-A*0201 molecule. COS7 cells transfected with both the full length of KNTC2 and HLA-A*0201 gene (a specific model for the target cells that express KNTC2 and HLA-A*0201 gene) were prepared as a stimulator cells, and COS7 cells transfected with either full length of KNTC2 or HLA-A*0201 were used as the controls.

Sequence	Peptide specific CTL activity (IFN-gamma production) by IFN-gamma ELISPOT [1]	IFN-gamma production of CTL clones by IFN-gamma ELISA [2]	IFN-gamma production of CTL lines by IFN-gamma ELISA [3]	CTL activity of CTL line against COS7 cells expressing both KNTC2 and HLA-A*0201 ([4]; COS7 transfected with both full length KNTC2 and HLA-A*0201)	CTL activity of CTL line against control COS7 cells ([4]; COS7 transfected with either full length KNTC2 or HLA-A*0201)
AILDQKLNGL (a peptide derived from KNTC2) [SEQ ID NO: 53, 10mer peptide derived from KNTC2, start position 322]	potent IFN-gamma production	–	–	–	–
ALVWLIDCI (a peptide derived from KNTC2) [SEQ ID NO: 7, 9mer peptide derived from KNTC2, start position 184]	potent IFN-gamma production	Potent IFN-gamma production	potent IFN-gamma production	potent CTL activity	no significant specific CTL activity was detected
FLYGFLCPS (a peptide derived from KNTC2) [SEQ ID NO: 2, 9mer peptide derived from KNTC2, start position 131]	potent IFN-gamma production	Potent IFN-gamma production	potent IFN-gamma production	–	–
GLNEEIARV (a peptide derived from KNTC2) [SEQ ID NO: 1, 9mer peptide derived from KNTC2, start position 330]	no specific IFN-gamma production	–	–	–	–
IVAALVWLI (a peptide derived from KNTC2) [SEQ ID NO: 3, 9mer peptide derived from KNTC2, start position 181]	potent IFN-gamma production	Potent IFN-gamma production	potent IFN-gamma production	–	–
KIFTFLYGF (a peptide derived from KNTC2) [SEQ ID NO: 17, 9mer peptide derived from KNTC2, start position 127]	potent IFN-gamma production	–	–	–	–
KIFTFLYGFL (a peptide derived from KNTC2) [SEQ ID NO: 41, 10mer peptide derived from KNTC2, start position 127]	potent IFN-gamma production	–	–	–	–
LVWLIDCIKI (a peptide derived from KNTC2) [SEQ ID NO: 68, 10mer peptide derived from KNTC2, start position 185]	potent IFN-gamma production	–	–	–	–
